For this assay, the target named is T1, Prostaglandin E synthase (Homo sapiens, UniProt O14684).
T1 sequence (O14684 whole entry): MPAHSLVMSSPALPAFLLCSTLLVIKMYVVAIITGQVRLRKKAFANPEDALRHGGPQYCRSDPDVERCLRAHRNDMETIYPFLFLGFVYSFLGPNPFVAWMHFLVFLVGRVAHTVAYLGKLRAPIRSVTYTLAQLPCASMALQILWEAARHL
As to the kind of experiment: Inhibition Assay: mPGES-1 microsome fractions were prepared from CHO-K1 cells transiently transfected with plasmid encoding the human mPGES-1cDNA. Microsomes were diluted with potassium phosphate buffer containing reduced glutathione (pH7.4), and DMSO containing test compound or DMSO alone was added (such that DMSO final concentration would be 1% in each) and incubated at 4° C. for 20 minutes. Then, the enzymatic reactions were initiated by the addition of PGH2 substrate (final concentration 1 μM) and incubated at 4° C. for 60 seconds. The reaction was terminated by the addition of a citrate solution (final citrate concentration 50 mM) containing ferric chloride (final concentration 1 mg/mL). PGE2 production in the enzyme reaction aliquot was measured using HTRF kit (Cisbio International, catalogue #62P2APEC). The class given is cell-based. (In general: Time-resolved FRET reads energy transfer from a long-lived donor to a nearby acceptor.)

As usually defined, the IC50 is the concentration that inhibits the measured activity by half. Lower therefore signals inhibition by little substance. The compound `O=C(Nc1cc(C(=O)NCc2ccccc2C(F)(F)F)c2nc[nH]c2c1)c1ccccc1C(F)(F)F` showed an IC50 of 12.7 nM.

These data come from ChEMBL document CHEMBL3886430, “Heterocyclic derivative and pharmaceutical drug” (2015).
